Experimental data reported in patent US7473708B2, “Agents with leukotriene B4-like antiviral (enveloped RNA) activities” (priority 1996, dated 2009).

Key:
[1] = system: EBV; assay: Detection of Epstein-Barr Nuclear Antigen (EBNA) in EBV-infected PBMC (ACIF test); format: cell-based, human; settings: 100 nM analog, PBMC, six days, EBNA by ACIF
Description: After ten days of culture, cells were harvested for determination of the presence of Epstein-Barr Nuclear Antigen (EBNA), a consequence of EBV infection. Preparation of cell smears, fixation and detection of EBNA by the anti-complement immunofluorescence (ACIF) test were carried out as described by Reedman B. M. and Klein G. (Int. J. Cancer, 1973, 11:499). Smears were prepared by spreading 50 μl of a concentrated suspension of washed cells (2×10^6/ml) on clean slides, air dried and fixed in cold acetone (−20° C.) during 10 minutes. Human serum (50 μl) from EBV seropositive donor was used as a source of complement. Slides were incubated at room temperature in a humid chamber during 45 minutes. Slides were then washed three times in phosphate buffer saline (PBS) and stained with 50 μl of fluorescein-5-isothiocyanate (FITC “Isomer I”)-conjugated goat IgG fraction anti-human complement C3 (Cappel Research Products, Durham, N.C.) during 60 minutes at room temperature in a humid chamber. Slides were washed in PBS (3 times), mounted in PBS:glycerol 1:1 and examined. Raji and U937 cells were used as positive and negative controls, respectively. The percentage of EBNA-positive cells was decreased by more than 55% with 30 nM LTB4, and by more than 70% with 100 nM LTB4 (FIG. 2). The results illustrated in FIG. 2 are representative of six (6) other experiments.
(§1) PBMC were infected with EBV and HSV-1 and treated or not with 100 nM of analogs of LTB4 such as 20-OH-LTB4, LTA3 methyl ester, 12(R)-HETE and 5(S), 15(S)-diHETE. After six days of culture, the presence of EBNA antigen (a consequence of EBV infection) was evaluated by the ACIF test, as described in Example I. Similarly, the presence of HSV-1 antigen in PBMC was evaluated by immunofluorescence using an antiserum obtained from a chronically infected donor as described above in section entitled “Detection of Specific HSV-1 Antigen”. […] The results illustrated in Table 1 are representative of three other experiments.

[2] = system: HSV-1 (strain McIntyre); assay: Detection of specific HSV-1 antigen in HSV-1-infected PBMC (immunofluorescence); format: cell-based, human; settings: 100 nM analog, six days, antiserum immunofluorescence
Description: Synthesis of the viral antigen was inhibited by 60% in the presence of 100 nM LTB4 (FIG. 4). The results illustrated in FIG. 4 are representative of five (5) other experiments.
as §1

[3] = system: EBV; settings: in vitro, read-out: IC50, viral replication; cited from earlier work
[4] = system: HSV; settings: in vitro, read-out: IC50, viral replication; cited from earlier work

CCCCC[C@H](O)/C=C/C=C\C/C=C\C=C\[C@@H](O)CCCC(=O)O [5(S),15(S)-diHETE, 5(S),15(S)-dihydroxy-6,8,11,13-(E,Z,Z,E)-eicosatetrae-noic acid]
EBV infection, percentage of inhibition compared to infected PBMC cultured in the absence of analogs [1]: 50%

CCCCC/C=C\C[C@@H](O)/C=C/C=C\C/C=C\CCCC(=O)O [12(R)-HETE, 12(R)-hydroxy-5,8,10,14(Z,Z,E,Z)-eicosatetraenoic acid]
HSV-1 infection, percentage of inhibition compared to infected PBMC cultured in the absence of analogs [2]: 70% | EBV infection, percentage of inhibition compared to infected PBMC cultured in the absence of analogs [1]: 65%

O=C(O)CCC[C@H](O)\C=C/C=C/C=C/[C@H](O)C/C=C\CCCCCO [20-OH-LTB4, 20-hydroxy-LTB4]
HSV-1 infection, percentage of inhibition compared to infected PBMC cultured in the absence of analogs [2]: 74%

CCCCCCCC\C=C/C=C/C=C/[C@@H]1O[C@H]1CCCC(=O)OC [LTA3 methyl ester, 14,15-dihydro-LTA4 methyl ester]
HSV-1 infection, percentage of inhibition compared to infected PBMC cultured in the absence of analogs [2]: 60% | EBV infection, percentage of inhibition compared to infected PBMC cultured in the absence of analogs [1]: 65%

Nc1nc(O)c2ncn(COC(CO)CO)c2n1 [ganciclovir]
IC50 [3]: 1000 nM | IC50 [4]: 2400 nM
